The results in this text go back to ChEMBL document CHEMBL3045124, “Molecular docking and in silico studies on analogues of 2-methylheptyl isonicotinate with DHDPS enzyme of Mycobacterium tuberculosis” (2013).

Holding throughout (assay type): functional
Assay [1] relates to Bacillus subtilis. Put plainly: Antibacterial activity against Bacillus subtilis.
The subject of assay [2] is Proteus vulgaris. Kind of assay: Antimicrobial activity against Proteus vulgaris.
Assay [3] concerns Escherichia coli. Put plainly: Antibacterial activity against Escherichia coli.
Assay [4] relates to Mycobacterium tuberculosis. Kind of assay: Antitubercular activity against Mycobacterium tuberculosis.
Assay [5] concerns Bacillus subtilis. Put plainly: Antibacterial activity against Bacillus subtilis after 24 hr by agar cup assay.
The test system of assay [6] is Klebsiella sp. Kind of assay: Antibacterial activity against Klebsiella sp. after 24 hr by agar cup assay.
Assay [7] relates to Shigella sp. Put plainly: Antibacterial activity against Shigella sp. after 24 hr by agar cup assay.
The test system of assay [8] is Escherichia coli. Put plainly: Antibacterial activity against Escherichia coli after 24 hr by agar cup assay.
The test system of assay [9] is Arthrobacter sp. Put plainly: Antibacterial activity against Arthrobacter sp. after 24 hr by agar cup assay.
Assay [10] deals with Proteus mirabilis. Kind of assay: Antibacterial activity against Proteus mirabilis after 24 hr by agar cup assay.

≈ marks a conversion by molar mass, not a printed value.

Broadly, the MIC is the least concentration at which growth counts as inhibited. Lower therefore signals a more susceptible organism. As for `CCCCOC(=O)c1ccncc1` [ISONICOTINIC ACID BUTYL ESTER], the MIC in assay [1] was 600 µg/mL (≈ 3350 µM); in assay [2], 500 µg/mL (≈ 2790 µM); in assay [3], 600 µg/mL (≈ 3350 µM); in [4] it was 280 µg/mL (≈ 1560 µM).

On to `CCCCCOC(=O)c1ccncc1` [ISONICOTINIC ACID PENTYL ESTER], for which the MIC in assay [1] came out at 20 µg/mL (≈ 103 µM); in assay [2] it was 14 µg/mL (≈ 72.4 µM); in assay [3] it was 20 µg/mL (≈ 103 µM); in [4], 10 µg/mL (≈ 51.7 µM).

For `CCCCCCCOC(=O)c1ccncc1` [ISONICOTINIC ACID HEPTYL ESTER], the MIC in [1] came out at 24 µg/mL (≈ 108 µM); in [2], 16 µg/mL (≈ 72.3 µM); in [3] it was 24 µg/mL (≈ 108 µM); in assay [4], 16 µg/mL (≈ 72.3 µM).

In the case of `CCCCCC(C)COC(=O)c1ccncc1` (centres undefined) [2-METHYL HEPTYL ISONICOTINATE], the MIC is 50 µg/mL (≈ 212 µM) in assay [5]; 50 µg/mL (≈ 212 µM) in assay [6]; 60 µg/mL (≈ 255 µM) in assay [7]; 70 µg/mL (≈ 297 µM) in assay [8]; 40 µg/mL (≈ 170 µM) in assay [9]; 40 µg/mL (≈ 170 µM) in assay [10].

For the compound `CCCCCCCCOC(=O)c1ccncc1` [ISONICOTINIC ACID OCTYL ESTER], the MIC came out at 16 µg/mL (≈ 68 µM) in assay [1], 6 µg/mL (≈ 25.5 µM) in [2], 16 µg/mL (≈ 68 µM) in [3] and 8 µg/mL (≈ 34 µM) in assay [4].

As for `CCCCC[C@H](C)COC(=O)c1ccncc1` [(S)-2-METHYLHEPTYL ISONICOTINATE], the MIC in assay [1] was determined as 20 µg/mL (≈ 85 µM); in assay [2] it was 14 µg/mL (≈ 59.5 µM); in assay [3], 20 µg/mL (≈ 85 µM); in assay [4], 14 µg/mL (≈ 59.5 µM).

On to `CCCCCCOC(=O)c1ccncc1` [ISONICOTINIC ACID HEXYL ESTER], for which the MIC was determined as 50 µg/mL (≈ 241 µM) in assay [1], 36 µg/mL (≈ 174 µM) in assay [2], 50 µg/mL (≈ 241 µM) in [3] and 24 µg/mL (≈ 116 µM) in assay [4].

As to `CCCCC[C@@H](C)COC(=O)c1ccncc1` [ISONICOTINIC ACID 2-METHYL-HEPTYL ESTER], the MIC in assay [1] worked out at 16 µg/mL (≈ 68 µM); in assay [2] it was 6 µg/mL (≈ 25.5 µM); in [3], 16 µg/mL (≈ 68 µM); in assay [4] it was 10 µg/mL (≈ 42.5 µM).

For `NNC(=O)c1ccncc1` [ISONIAZID], the MIC is 150 µg/mL (≈ 1090 µM) in assay [5]; 250 µg/mL (≈ 1820 µM) in assay [6]; 300 µg/mL (≈ 2190 µM) in assay [7]; 2520 µg/mL (≈ 18400 µM) in assay [8]; 150 µg/mL (≈ 1090 µM) in assay [9]; 200 µg/mL (≈ 1460 µM) in assay [10].

`CCCCCCCCCCCCCCCCCCOC(=O)c1ccncc1` [ISONICOTINIC ACID OCTADECYL ESTER]: the MIC in assay [1] turned out to be 600 µg/mL (≈ 1600 µM); in assay [2] it was 560 µg/mL (≈ 1490 µM); in assay [3] it was 600 µg/mL (≈ 1600 µM); in assay [4], 320 µg/mL (≈ 852 µM).
